Results as given in paper PMC6212536, “Allosteric Site Inhibitor Disrupting Auto-Processing of Malarial Cysteine Proteases” (Scientific Reports, 2018).

Legend:
[1] = molecular target: T1, pro-falcipain-2 (pro-FP2) (Plasmodium falciparum, UniProt Q8I6U4); assay: SPR, immobilized pro-enzyme; auto-processing also blocked; type: binding
T1 construct: gene FP2A

[2] = molecular target: pro-falcipain-3 (pro-FP3) (Plasmodium falciparum, UniProt Q8IIL0); assay: as above; type: binding
Chain of pro-falcipain-3 (pro-FP3) (Q8IIL0 57-492): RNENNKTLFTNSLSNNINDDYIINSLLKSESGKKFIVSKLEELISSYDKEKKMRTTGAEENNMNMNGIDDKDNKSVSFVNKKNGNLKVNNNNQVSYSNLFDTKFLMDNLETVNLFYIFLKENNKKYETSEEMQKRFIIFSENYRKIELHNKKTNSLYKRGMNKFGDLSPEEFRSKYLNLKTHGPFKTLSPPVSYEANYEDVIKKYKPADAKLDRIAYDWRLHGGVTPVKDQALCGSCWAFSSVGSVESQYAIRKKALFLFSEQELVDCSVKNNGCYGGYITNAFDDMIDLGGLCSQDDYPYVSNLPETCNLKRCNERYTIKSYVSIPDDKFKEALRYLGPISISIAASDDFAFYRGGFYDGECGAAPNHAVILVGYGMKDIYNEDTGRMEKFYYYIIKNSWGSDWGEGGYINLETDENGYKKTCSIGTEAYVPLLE

T1 sequence (Q8I6U4 208-484): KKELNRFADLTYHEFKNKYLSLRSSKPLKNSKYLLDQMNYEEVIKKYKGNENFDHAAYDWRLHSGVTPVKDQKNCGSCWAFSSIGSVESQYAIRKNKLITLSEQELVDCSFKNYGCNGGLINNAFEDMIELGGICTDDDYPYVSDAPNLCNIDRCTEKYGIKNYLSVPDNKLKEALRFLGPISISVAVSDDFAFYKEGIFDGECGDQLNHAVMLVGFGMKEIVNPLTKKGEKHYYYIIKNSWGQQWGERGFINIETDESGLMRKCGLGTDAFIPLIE

SMILES: O=C(CC1(CNC(=O)c2cnccn2)CCCCC1)NNC(=O)c1cnccn1 [NA-01]
- Kd [1]: 1.72 ± 0.03 nM
- Kd [2]: 5.14 ± 0.07 nM

SMILES: O=C(CC1(NC(=O)c2cnccn2)CCCCC1)NNC(=O)c1cnccn1 [NA-03]
- Kd [1]: 1.67 ± 0.01 nM
- Kd [2]: 2 ± 0.04 nM
